These results are taken from US20260021085A1, “CYCLOALKYL CARBOXYLIC ACID DERIVATIVES AS INHIBITORS OF GLYCOGEN SYNTHASE 1 (GYS1) AND METHODS OF USE THEREOF” (Maze Therapeutics, Inc., priority 2022, published 2026).

Where only a bound is given, the exact number is not on record here.

One assay has as its target human GYS1 (Homo sapiens (Human), UniProt P13807). In words: GYS1 coupled enzyme assay (PK/LDH). The format is biochemical. The note with it: recombinant hGYS1/GN1 protein; geometric mean of at least 2 assay runs. The text has this: (§1) The GYS1 coupled enzyme assay is a kinetic biochemical assay that indirectly quantifies the rate of glycogen synthesis by coupling the conversion of GYS1 substrate UDP-glucose into UDP with downstream enzymatic reactions. UDP is released from UDP-glucose as glucose monomers are linked into the growing glycogen strand by GYS1. The coupled assay then proceeds with pyruvate kinase utilizing UDP and phospho (enol) pyruvate (PEP) to form pyruvate. Lactate dehydrogenase then converts pyruvate and NADH into lactate and NAD+. Oxidation of NADH to NAD+ can be measured continuously with a plate reader by quantifying the decrease in NADH absorbance at 340 nm over time.
Compounds that inhibit the hGYS1 enzyme and, subsequently, the downstream conversion of NADH to NAD+, were tested using assay ready plates (black, clear bottom 384 well plates) in a final DMSO reaction volume of 2.5% DMSO. The Assay Buffer contained 50 mM Tris pH 7.5, 2 mM MgCl2, and 100 mM KCl. Fresh stocks of BSA at a final concentration of 0.02% and TCEP at 1 mM were added before splitting buffer into hGYS1 buffer and substrate buffer. To the hGYS1 buffer, rabbit liver glycogen was added at a final concentration of 0.2% glycogen. Glucose-6-Phosphate was added at 1 mM, recombinant hGYS1/GN1 protein was added at 50 nM to the substrate buffer, phosphoenolpyruvate (PEP) was added at 2 mM, UDP-Glucose was added at 0.8 mM, NADH) was added at 0.6 mM, and Pyruvate Kinase/Lactate Dehydrogenase was added at 20 units/mL. The reaction was initiated by mixing hGYS1 buffer and substrate buffer at a 1:1 ratio. Both buffers were plated using a liquid dispensing device with hGYS1 buffer plated first followed by the substrate buffer. Plates were spun briefly to eliminate air bubbles and are immediately read in continuous mode at an absorbance of 340 nm, for 10 time points in one-minute increments, for a total of 10 minutes. The slope from these 10 time points was normalized to the positive and negative control wells.
Unless otherwise specified, IC50 values are reported as the geometric mean of at least 2 assay runs on separate days. Each run represents the average of a technical replicate, where each compound was assayed twice in the same plate.

In a further assay the target is human GYS2 (Homo sapiens (Human), UniProt P54840). In words: GYS2 coupled enzyme assay (PK/LDH). In kind it is biochemical. Particulars: recombinant hGYS2/GN1 protein; geometric mean of at least 2 assay runs.
Excerpt: as §1, with “GYS2” for “GYS1”, “GYS2.” for “GYS1.”
Compounds that inhibit the hGYS2 enzyme and, subsequently, the downstream conversion of NADH to NAD+, were tested using assay ready plates (black, clear bottom 384 well plates) in a final DMSO reaction volume of 2.5% DMSO. The Assay Buffer contained 50 mM Tris pH 7.5, 2 mM MgCl2, and 100 mM KCl. Fresh stocks of BSA at a final concentration of 0.02% and TCEP 1 mM were added before splitting buffer into hGYS2 buffer and substrate buffer. To the hGYS2 buffer, rabbit liver glycogen was added at a final concentration of 0.2% glycogen. Glucose-6-Phosphate was added at 2 mM, recombinant hGYS2/GN1 protein was added at 200 nM to the substrate buffer, phosphoenolpyruvate (PEP) was added at 2 mM, UDP-Glucose was added at 2 mM, NADH was added at 0.6 mM, and Pyruvate Kinase/Lactate Dehydrogenase was added at 20 units/mL. The reaction was initiated by mixing hGYS2 buffer and substrate buffer at a 1:1 ratio. Both buffers were plated using a liquid dispensing device with hGYS2 buffer plated first followed by the substrate buffer. Plates were spun briefly to eliminate air bubbles and are immediately read in continuous mode at an absorbance of 340 nm, for 10 time points in one-minute increments, for a total of 10 minutes. The slope from these 10 time points was normalized to the positive and negative control wells.
(§2) Unless otherwise specified, IC50 values are reported as the geometric mean of at least 2 assay runs on separate days. […] Unless otherwise specified, IC50 values are reported as the geometric mean of at least two assay runs on separate days. Each run represents the average of a technical replicate, where each compound was assayed twice in the same plate.

The target in assay [1] is hGYS1 enzyme, glycogen synthesis in HeLa cells (Homo sapiens (Human), UniProt P13807). The assay is described as follows: GYS1 cell based assay (glycogen synthesis in HeLa cells, Glucose-glo). Particulars: starved HeLa cells, 24 h incubation; geometric mean of at least 2 assay runs; read-out: Cellular IC50.
Excerpt: The GYS1 cell based assay is a bioluminescent assay that quantifies the glucose resulting from glycogen digestion; the quantified glucose is an indirect measure of GYS1 glycogen synthesis. Newly synthesized glycogen is digested using Glucoamylase; the resulting glucose is quantified by using the Glucose-glo assay kit from Promega. Glucose-glo works by coupling glucose oxidation and NADH production with a bioluminescent system that is activated with NADH. Glucose is oxidized by Glucose dehydrogenase and the reaction reduces NAD+ to NADH; NADH activates Reductase which reduces a pro-luciferin Reductase Substrate to luciferin. Luciferin is detected in a luciferase reaction using Ultra-Glo rLuciferase and ATP, and the luminesce produced is proportional to the glucose in the sample. The luminescence is measured as a single point read in a plate reader.
Compounds that inhibit the hGYS1 enzyme and, subsequently, the glycogen synthesis in cells, were tested using assay ready plates (white, clear bottom 384 well plates) in a final DMSO reaction volume of 1% DMSO. Compounds in the assay ready plates were mixed with media with no additives, except for 20 mM glucose prior to cell addition. HeLa cells were starved in media with no additives, except for 1× Glutamax for 24 h. Starved HeLa cells were plated, in a 1:1 ratio to the media in the assay ready plate and incubated for 24 h at 37° C. and 5% CO2. Cells were washed in 1×PBS buffer and lysed in lysis buffer containing 50% 1×PBS and 25% 0.3 N HCl of the final volume in the well or reaction volume; cells were incubated with lysis buffer for 10 minutes and quenched with the remaining 25% of the reaction volume that consisted of 450 mM Tris pH 8.0. Lysates were mixed in a 1:1 ratio with Glucoamylase in 100 mM Sodium Acetate buffer, pH 5.3; the mixture was incubated for 1 h at 37° C. The digested lysate was mixed in a 1:1 ratio with Glucose-glo detection mixture as per vendor recommendations (Luciferase detection buffer, Reductase, Reductase substrate, Glucose dehydrogenase, and NAD) in read-out plates (solid white 384-well plates) and incubated for 1 h at RT. The plates were read using a plate reader with luminescence capabilities. Each compound concentration Relative Luminescence Unit (RLU) was averaged and normalized to the average RLU of the positive and negative controls to obtain a percentage inhibition. The normalized data vs. concentration was plotted; to determine the half-maximal concentration (IC50), the Levenberg-Marquardt algorithm was used to fit a Hill equation to the dose response data.
as §2

Chain of human GYS2 (P54840 whole entry): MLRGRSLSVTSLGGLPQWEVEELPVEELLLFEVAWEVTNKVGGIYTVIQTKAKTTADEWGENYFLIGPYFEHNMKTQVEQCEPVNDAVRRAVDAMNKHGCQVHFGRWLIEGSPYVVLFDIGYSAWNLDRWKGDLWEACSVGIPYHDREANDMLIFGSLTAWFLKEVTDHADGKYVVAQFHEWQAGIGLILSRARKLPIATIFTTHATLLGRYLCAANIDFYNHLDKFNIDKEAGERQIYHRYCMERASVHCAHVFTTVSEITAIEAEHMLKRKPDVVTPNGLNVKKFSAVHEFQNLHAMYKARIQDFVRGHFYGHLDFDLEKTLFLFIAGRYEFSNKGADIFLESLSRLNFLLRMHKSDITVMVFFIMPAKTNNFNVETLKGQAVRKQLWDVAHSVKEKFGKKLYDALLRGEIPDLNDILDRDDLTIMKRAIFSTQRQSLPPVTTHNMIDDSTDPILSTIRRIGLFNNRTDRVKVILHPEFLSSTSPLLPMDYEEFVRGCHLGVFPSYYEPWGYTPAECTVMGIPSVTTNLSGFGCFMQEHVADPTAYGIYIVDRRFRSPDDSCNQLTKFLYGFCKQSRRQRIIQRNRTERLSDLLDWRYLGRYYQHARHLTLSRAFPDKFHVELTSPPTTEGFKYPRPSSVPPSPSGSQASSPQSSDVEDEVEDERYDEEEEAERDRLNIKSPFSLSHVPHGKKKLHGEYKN
Chain of human GYS2 (P46976 whole entry partner): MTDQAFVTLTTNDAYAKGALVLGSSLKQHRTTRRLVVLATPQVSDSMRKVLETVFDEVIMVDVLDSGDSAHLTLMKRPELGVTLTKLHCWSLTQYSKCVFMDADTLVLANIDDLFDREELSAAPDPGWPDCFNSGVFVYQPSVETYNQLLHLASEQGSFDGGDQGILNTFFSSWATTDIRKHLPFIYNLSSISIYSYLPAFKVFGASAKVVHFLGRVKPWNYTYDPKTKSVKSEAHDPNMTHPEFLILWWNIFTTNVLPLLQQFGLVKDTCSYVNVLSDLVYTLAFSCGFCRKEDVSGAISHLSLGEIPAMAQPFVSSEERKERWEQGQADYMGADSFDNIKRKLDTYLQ
Chain of human GYS1 (P13807 whole entry): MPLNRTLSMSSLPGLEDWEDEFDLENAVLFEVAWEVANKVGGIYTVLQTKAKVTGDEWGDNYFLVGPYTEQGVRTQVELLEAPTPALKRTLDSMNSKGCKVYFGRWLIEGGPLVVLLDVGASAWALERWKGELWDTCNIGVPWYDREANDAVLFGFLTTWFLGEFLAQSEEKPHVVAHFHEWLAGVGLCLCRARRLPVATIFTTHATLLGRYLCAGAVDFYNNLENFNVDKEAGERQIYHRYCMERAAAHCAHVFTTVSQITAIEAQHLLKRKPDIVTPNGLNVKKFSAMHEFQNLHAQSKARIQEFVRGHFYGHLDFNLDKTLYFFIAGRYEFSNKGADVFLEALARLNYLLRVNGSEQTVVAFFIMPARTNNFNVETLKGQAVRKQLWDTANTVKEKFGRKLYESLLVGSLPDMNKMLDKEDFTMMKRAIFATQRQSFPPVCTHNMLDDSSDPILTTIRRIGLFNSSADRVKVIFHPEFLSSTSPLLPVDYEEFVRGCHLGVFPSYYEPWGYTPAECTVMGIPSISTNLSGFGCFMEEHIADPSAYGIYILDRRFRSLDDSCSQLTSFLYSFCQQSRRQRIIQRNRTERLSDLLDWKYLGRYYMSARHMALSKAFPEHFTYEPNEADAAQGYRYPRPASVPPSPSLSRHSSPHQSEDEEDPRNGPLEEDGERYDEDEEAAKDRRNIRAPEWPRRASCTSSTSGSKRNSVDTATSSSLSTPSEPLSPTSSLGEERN
Chain of human GYS1 (P46976 whole entry partner): as the sequence (P46976 whole entry partner) above
Chain of hGYS1 enzyme, glycogen synthesis in HeLa cells (P13807 whole entry): as the sequence (P13807 whole entry) above

As to `CC(C)c1ccc([C@@H](NC(=O)[C@@H]2CCC[C@@H]2C(=O)O)c2ccccc2)nc1` [Compound 36, (1S,2R)-2-(((S)-(5-isopropylpyridin-2-yl)(phenyl)methyl)carbamoyl)cyclopentane-1-carboxylic acid], the IC50 on human GYS1 was 837 nM; on human GYS2 it was more than 100 µM.

For the compound `O=C(O)[C@H]1CCC[C@H]1C(=O)N[C@@H](c1ccccc1)c1ccc(C2CCC2)cc1` [Compound 34, (1S,2R)-2-(((S)-(4-cyclobutylphenyl)(phenyl)methyl)carbamoyl)cyclopentane-1-carboxylic acid], the half-maximal inhibitory concentration (IC50) on human GYS1 amounted to 426 nM; on human GYS2, 67.1 µM.

Take `O=C(O)[C@H]1CCC[C@H]1C(=O)N[C@@H](c1ccccc1)c1ccc(C2CC2)c(F)c1` [Compound 17, (1S,2R)-2-(((S)-(4-cyclopropyl-3-fluorophenyl)(phenyl)methyl)carbamoyl)cyclopentane-1-carboxylic acid]: the half-inhibitory concentration (IC50) is 1580 nM at human GYS1, 27.3 µM in assay [1] and more than 100 µM at human GYS2.

For the compound `CC(C)c1ccc(C(NC(=O)C2CCCC2C(=O)O)c2cccs2)cc1` (single isomer, unassigned) [Compound 44, (1R or 1S,2S or 2R)-2-(((R or S)-(4-isopropylphenyl)(thiophen-2-yl)methyl)carbamoyl)cyclopentane-1-carboxylic acid], the half-inhibitory concentration (IC50) was 12900 nM on human GYS1 and 11.7 µM on human GYS2.

With `CC(C)c1ccc([C@@H](NC(=O)[C@@H]2CCC[C@@H]2C(=O)O)c2ccccc2)cc1` [Compound 41, (1S,2R)-2-(((S)-(4-isopropylphenyl)(phenyl)methyl)carbamoyl)cyclopentane-1-carboxylic acid], the IC50 is 637 nM on human GYS1 and more than 87.1 µM on human GYS2.

For the compound `CC(C)c1ccc([C@@H](NC(=O)[C@@H]2CCCC[C@@H]2C(=O)O)c2cccs2)cc1` [Compound 42, (1S,2R)-2-(((R)-(4-isopropylphenyl)(thiophen-2-yl)methyl)carbamoyl)cyclohexane-1-carboxylic acid], the IC50 at human GYS1 is 961 nM; on human GYS2, more than 77.6 µM.

For `Cc1ccccc1[C@H](NC(=O)[C@@H]1CCC[C@@H]1C(=O)O)c1ccc(C(C)C)cn1` [Compound 22, (1S,2R)-2-(((S)-(5-isopropylpyridin-2-yl)(o-tolyl)methyl)carbamoyl)cyclopentane-1-carboxylic acid], the IC50 on human GYS1 is 1260 nM; in assay [1], 13.9 µM; at human GYS2, 66.7 µM.

On to `CC(C)c1c(F)cc([C@@H](NC(=O)[C@@H]2CCC[C@@H]2C(=O)O)c2ccccc2)cc1F` [Compound 8, (1S,2R)-2-(((S)-(3,5-difluoro-4-isopropylphenyl)(phenyl)methyl)carbamoyl)cyclopentane-1-carboxylic acid], for which the IC50 at human GYS1 was 239 nM; in assay [1] it was 3.93 µM; on human GYS2 it was more than 100 µM.

For the compound `CC(C)c1ccc(C(NC(=O)C2CCCC2C(=O)O)c2cccs2)cc1` (single isomer, unassigned) [Compound 43, (1R or 1S,2S or 2R)-2-(((S or R)-(4-isopropylphenyl)(thiophen-2-yl)methyl)carbamoyl)cyclopentane-1-carboxylic acid], the IC50 at human GYS1 was 19800 nM; at human GYS2, more than 250 µM.

As to `CC(C)c1ccc([C@@H](NC(=O)C2CC(F)CC2C(=O)O)c2ccccc2)cc1` (single isomer, unassigned) [Compound 25, (1S or 1R,2R or 2S,4R or 4S)-4-fluoro-2-(((S)-(4-isopropylphenyl)(phenyl)methyl)carbamoyl)cyclopentane-1-carboxylic acid], the IC50 on human GYS1 was found to be 1150 nM; in assay [1], 24.5 µM.

As for `CC(C)c1ccc([C@@H](NC(=O)C2CC(O)CC2C(=O)O)c2ccccc2)cc1` (single isomer, unassigned) [Compound 16, (1S or 1R,2R or 2S,4R or 4S)-4-hydroxy-2-(((S)-(4-isopropylphenyl)(phenyl)methyl)carbamoyl)cyclopentane-1-carboxylic acid], the IC50 at human GYS1 was 836 nM; in assay [1], more than 100 µM.

On to `CC(C)c1ccc([C@@H](NC(=O)[C@@H]2CCC[C@@H]2C(=O)O)c2cccc3[nH]c(=O)oc23)cc1` [Compound 9, (1S,2R)-2-(((R)-(4-isopropylphenyl)(2-oxo-2,3-dihydrobenzo[d]oxazol-7-yl)methyl)carbamoyl)cyclopentane-1-carboxylic acid], for which the IC50 is 879 nM on human GYS1 and more than 100 µM in assay [1].

In the case of `CC(C)c1ccc([C@@H](NC(=O)[C@@H]2CCC[C@@H]2C(=O)O)c2cccnc2N)cc1` [Compound 29, (1S,2R)-2-(((R)-(2-aminopyridin-3-yl)(4-isopropylphenyl)methyl)carbamoyl)cyclopentane-1-carboxylic acid], the results for the IC50 (on human GYS1; in assay [1]) were 1520 nM and 65.6 µM, respectively.

`Cc1ccccc1[C@H](NC(=O)[C@@H]1CCC[C@@H]1C(=O)O)c1ccc(C(C)C)cc1` [Compound 40, (1S,2R)-2-(((R)-(4-isopropylphenyl)(o-tolyl)methyl)carbamoyl)cyclopentane-1-carboxylic acid]: the IC50 on human GYS1 was 390 nM; on human GYS2, 10.8 µM.

Regarding `CC(C)c1ccc(C(NC(=O)C2CCCC2C(=O)O)c2cccs2)cc1` (single isomer, unassigned) [Compound 46, (1S or 1R,2R or 2S)-2-(((S or R)-(4-isopropylphenyl)(thiophen-2-yl)methyl)carbamoyl)cyclopentane-1-carboxylic acid], the values for the IC50 on human GYS1 and on human GYS2 were more than 99900 nM and more than 250 µM, respectively.

The term IC50 denotes the concentration needed to halve the response being measured.
